Results published in patent US11883405B2, “Pharmaceutical composition comprising a combination of methotrexate and novobiocin, and the use of said composition in therapy” (Amplio Pharma AB, priority 2017, dated 2024).
Read-outs that look alike come from different tables or passages of the source.

Assays:
[1] = test system: MMP1; conditions: cited from earlier work; for IL-1 induced increase in MMP1 expression: Nose M. et al. (1997)
[2] = test system: MMP3; conditions: cited from earlier work
[3] = cited from earlier work
[4] = test system: RA patients; conditions: 15 mg/wk, cited from earlier work
[5] = test system: neutrophils; conditions: 4 months after reaching a therapeutic dose of more than 20 mg/week; cited from earlier work
[6] = test system: pristane-induced arthritis; assay: Pristane-induced arthritis (PIA) rat model; type: in vivo
Procedure: The animals are acclimatized for approximately one week before initiation of experiment. All rats are weighed day 0, the day of disease induction, for determination of mean weight of the rats included in the experiment. Arthritis is induced by subcutaneous (s.c.) administration of 200 μl pristane on Day 0. The rats are anesthetized by inhaling a mixture of Isoba vet (3.5%) and oxygen. The root of the tail is cleaned with 70% ethanol and the oil is injected approximately 0.5 cm from the root of the tail. A slight pressure is put on the injection site for 5 seconds after injection to prevent leakage of the oil. Test compounds are administered either i.v. or p.o. (by gavage). Disease is evaluated three times per week from disease onset using a macroscopic scoring system of the four limbs ranging from 0 to 15 (1 point for each swollen or red toe, 1 point for a swollen or red mid foot digit or knuckle, 5 points for a swollen ankle) resulting in a maximum total score of 60 for each rat. The disease scoring is done in a double-blind fashion, i.e. the scorer is unaware of the treatment received by the animal. […]

[7] = therapeutically effective treatment dose level; cited from earlier work
[8] = Pharmacokinetic cross-over study in healthy volunteers (oral / subcutaneous); type: in vivo, human; conditions: for absorption: after oral and subcutaneous administration
Procedure: Administrations are separated by a wash-out period of 7-14 days. […] Plasma samples are stored at −20° C. until analysis. The primary objective of the study is to evaluate the relative bio-availability of methotrexate following its co-administration with novobiocin. Secondary objectives of the study include the overall tolerability and safety of the co-administration of a therapeutic dose of methotrexate with a non-therapeutic dose of novobiocin for both administration routes overall and in comparison, to administration of methotrexate alone.

[9] = Pharmacokinetics in rats after oral (gavage) or parenteral administration
Procedure: (§9) In vivo study protocol—in accordance with local (Malmo, Sweden) animal ethic license number M388-12: Following acclimatization to the housing conditions for a minimum of 7 days after arrival, male Wistar (Hannover) rats (Taconic, Denmark), average weight 300 g; average age 8-10 weeks, are treated with test items (see table 1); 12-16 h prior to dosing all food except for an amount equivalent to a half day consumption is removed. The test items are administrated using a soft gavage tube (p.o.) or by injecting the test item in the tail vein (i.v). The volume given is 5 mL/kg (p.o.) or 1 mL/kg (i.v.). Before i.v administration rats are anesthetized using isoflurane. The rats are conscious during sample collection and the blood is taken from the sub-lingual vein. Blood samples are collected from each rat over a period of up to 24 h. At each time point two aliquots of 50 μL each is added to a vial containing 150 μL of sterile water. The samples are mixed immediately and stored at −18° C. until preparation for bioanalysis is commenced. All formulations are prepared on the same day that dosing takes place. The body weight of the rat is recorded before dosing. The weight of the syringe is recorded before and after administration to allow calculation of the actual amount of test sample delivered. The actual doses are used during the evaluation of the data.
(§10) Samples and standards are injected by a HTC PAL from CTC analytics into an LC system from Shimadzu consisting of a high-pressure gradient system of two LC-10 AD pumps controlled by a SCL-10A controller from Shimadzu. The samples are separated using reverse-phase chromatography with gradient elution at a flow rate of 0.8 mL/min. Mobile phases are A:94.9/5/0.1 water/acetonitrile/formic acid and B:5/94.9/0.1 water/acetonitrile/formic acid. Gradient starts at 0% B and increases linearly to 100% B in 4 minutes, 100% B is kept for 0.5 minutes and then the system returns to 0% B in 0.1 minutes. The system is equilibrated for 1.4 minutes until the total run time of 6 minutes. The eluent is analysed by a Quattro Ultima from Micromass equipped with an electrospray ion source. Data are collected, and calibrations are calculated by MassLynx 4.0 software. […] The eluent is ionized by negative ion electrospray.
(§11) The diluted blood sample (50 μL blood, 150 μL water) is thawed and mixed with 400 μL of acetonitrile, to precipitate the protein. The sample is centrifuged at 5000 g for 5 minutes and 100 μL of the supernatant is transferred to a 300 μL glass vial and 100 μL of water is added to reduce the acetonitrile concentration.
(§12) The concentration of the standard curve is in the range from 5 nM to 15625 nM. Samples with analyte concentrations above the upper limit of quantification are diluted with matrix to reach within the assay range. A non-compartmental analysis (NCA) is performed using the Phoenix WinNonLin analysis tool.

[10] = adults; cited from earlier work
[11] = test system: neutrophils; assay: Induction of neutrophil apoptosis (in vitro/ex vivo model of arthritis); type: cell-based, rat
From the text: (§1) Apoptosis, in contrast to necrosis, is the demise of a cell through a series of controlled sequential events, resulting in an increase of anti-inflammatory mediators instead of invoking an inflammatory response, because the contents of the cell are removed by phagocytosis and not released to the direct environment. Apoptosis involves the activation of caspases, including caspase 3. Aberration in expression and/or function of the regulators of cell death through apoptosis is thought to result in pathological conditions, including autoimmune diseases and cancer. Although apoptotic cells are uncommonly observed in vivo in RA tissues, in vitro inflammatory cells from RA tissues, like synoviocytes, T-cells and macrophages, are highly susceptible to apoptosis induced through the FAS-TNF-receptor pathway. The absence of apoptotic cells in vivo may be explained by the high levels of nitric oxide in RA tissues, which inhibits caspase 3 and thus cell apoptosis.
(§2) Novobiocin is a topoisomerase II inhibitor and at therapeutically relevant concentration levels, is expected to counteract CPPD-triggered prolonged survival of neutrophils. Such a pharmacodynamic effect of Novobiocin may be quantified either through activity (levels) of caspase 3, an apoptotic cleavage enzyme, or cytoplasmic histone-associated-DNA fragmentation assessment, using commercially available kits.
(§3) In the latter model, the effect on neutrophil apoptosis can be either studied directly, or indirectly, exposing the cells in vitro to a challenge that prolongs their survival (e.g. CPPD crystals).
(§4) CPPD (Ca2P2O7.2H2O; triclinic form) crystals can be obtained using well described methods (Burt H M et al. 1989; Gras P. et al. 2013). Plasma protein coating of the crystals is achieved through incubation of the crystals in 50% plasma (Tudan C et al. 2003). The CPPD crystals are used in experiments with neutrophils from healthy control individuals/animals to mimic arthritic disease.
(§5) Neutrophils are separated from fresh human (healthy control/patient) or rat (healthy control; disease model) blood using standard methods and suspended in buffer at a concentration of 1×10^6 cells/ml. The cells are incubated at 37° C. with occasional tumbling.
(§6) Stock solutions of TNFalpha, Methotrexate and Novobiocin are prepared in DMSO, keeping the DMSO concentrations in the cell suspensions below 0.1% during the experiment. The apoptosis rate following the administration of vehicle without active agent (negative control) represents the baseline rate of apoptosis (no effect level), while the apoptosis rate following the administration of TNFalpha (positive control) represents the maximum rate of apoptosis (100% effect level).

[12] = rat, in vivo
Procedure: as §9, §10, §11, §12

[13] = cited from earlier work; remark: listed apart in the source
[14] = rodents; cited from earlier work
[15] = test system: MMP3 (stromelysin1); assay: IL-1 induced mRNA upregulation of MMP3 in primary chondrocyte culture; type: cell-based; conditions: calf chondrocytes, IL-1 20 ng/mL; concentrations <100 uM
Procedure: (§7) Primary chondrocyte culture was freshly isolated from calf cartilage. The cells were plated (at 2.5×10^6 per mL) in 100×20 mm culture dishes and incubated in Ham's F12 medium containing 5% fetal bovine serum (FBS) overnight at 37° C. The cells were starved with serum-free medium overnight. The cells were pretreated with MTX, NOV or a combination of MTX with 1, 2, 10 or 20 eq of NOV for 6 hours. Then IL-1 (20 ng/mL) was added to each plate and the plates were incubated for an additional 18 h.
(§8) Total RNA was isolated by the acidified guanidine isothiocyanate method and subjected to electrophoresis on a denatured gel. Denatured RNA samples were analyzed by gel electrophoresis in a 1% denaturing gel, transferred to a nylon membrane and hybridized respectively with the ^32P-cDNA probes for MMP1, MMP3 and proteoglycan and analyzed.

[16] = test system: neutrophils; assay: Induction of neutrophil apoptosis (in vitro/ex vivo model of arthritis); type: cell-based, human
From the text: as §1, §2, §3, §4, §5, §6

[17] = target: T1, plasma albumin (Homo sapiens, UniProt P02768); conditions: in men; cited from earlier work
T1 construct: host or cells: human plasma

[18] = test system: MMP1 (collagenase); assay: IL-1 induced mRNA upregulation of MMP1 in primary chondrocyte culture; type: cell-based, calf; conditions: concentrations <100 uM
Procedure: as §7, §8

[19] = at 1×10^−7 M, Jackson J K et al. (2008)
[20] = male, Wistar (Hannover), rat, whole blood, po, 2 mg/kg
[21] = neutrophils from healthy rat, concentrations <60 uM
[22] = neutrophils from healthy subjects, concentrations <60 uM
[23] = male, Wistar (Hannover), rat, whole blood, ip, 5.5 mg/kg
[24] = male, Wistar (Hannover), rat, whole blood, po, 55 mg/kg

T1 sequence (P02768 25-609): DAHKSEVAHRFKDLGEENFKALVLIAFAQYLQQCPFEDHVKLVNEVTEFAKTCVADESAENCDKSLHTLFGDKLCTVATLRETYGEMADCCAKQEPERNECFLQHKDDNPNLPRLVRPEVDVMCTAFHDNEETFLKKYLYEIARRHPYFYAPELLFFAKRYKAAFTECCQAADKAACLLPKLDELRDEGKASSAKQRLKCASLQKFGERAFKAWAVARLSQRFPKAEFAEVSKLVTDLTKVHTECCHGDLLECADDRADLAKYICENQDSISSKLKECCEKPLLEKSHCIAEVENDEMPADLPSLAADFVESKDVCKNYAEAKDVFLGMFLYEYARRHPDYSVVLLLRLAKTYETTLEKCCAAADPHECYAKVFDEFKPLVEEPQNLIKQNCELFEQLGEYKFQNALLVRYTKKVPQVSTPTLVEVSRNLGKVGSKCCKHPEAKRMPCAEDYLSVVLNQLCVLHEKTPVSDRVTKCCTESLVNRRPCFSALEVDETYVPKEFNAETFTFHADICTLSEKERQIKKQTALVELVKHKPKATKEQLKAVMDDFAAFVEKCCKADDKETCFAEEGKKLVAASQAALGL

For `CC[C@@]1(O)C(=O)OCc2c1cc1n(c2=O)Cc2cc3ccccc3nc2-1` [Camptothecin], the “IL-1 induced increase in MMP1 mRNA expression” value [1, 19] is listed as “almost completely inhibited” and the “IL-1 induced increase in MMP3 mRNA expression” value [2, 19] is listed as “almost completely inhibited”.

In the case of `O=C(O)c1cc(/N=N/c2ccc(S(=O)(=O)Nc3ccccn3)cc2)ccc1O` [Sulfasalazin], the “IL-1 induced increase in MMP1 expression” value [1] is listed as “suppressed” and the “IL-1 induced increase in MMP3 expression” value ([2]; Nose M. et al. (1997)) is listed as “suppressed”.

For `CN(Cc1cnc2nc(N)nc(N)c2n1)c1ccc(C(=O)N[C@@H](CCC(=O)O)C(=O)O)cc1` [methotrexate, N-[4-[[(2,4-diamino-6-pteridinyl)methyl]methylamino]benzoyl]-L-glutamic acid], the “IL-1 induced increase in MMP1 expression” value [1] is listed as “suppressed”, the “time within which non-polyglutamated methotrexate is excreted in the urine after administration” value ([3]; in vivo) is listed as no more than 12 h and the systemic bioavailability ([3]; man, oral dose) is listed as “approximately 73%”. For the same compound, the bioavailability ([3]; subcutaneous (sc) administration) was “approx. 95%”, the “treatment success, RA patients” value ([4]; oral application route) was 24% and the “treatment success, RA patients” value ([4]; sc application route) was 34%. For the same compound, the “neutrophil apoptosis in RA patients” value [5] was “restoration of neutrophil apoptosis to healthy control levels”, the “inflammatory effects of pristane” value ([6]; 0.1 mg/kg every third day from day 7 (i.v.)) was “completely ameliorated” and the “patient population in which treatment needs to be terminated due to intolerability” value [7] was “about 30%”. The “maximum concentrations and total plasma concentrations, sub cutaneous versus oral administration” value ([8]; 15 mg methotrexate alone) was “higher”, the absorption ([8]; healthy volunteers) was “rapidly absorbed” and the “time to maximum plasma concentrations, sub cutaneous route versus oral route” value ([8]; healthy volunteers) was “reached faster”. It also gave an AUC(0-inf) [9, 20] of 0.923 µM·h, an AUC(0-t) [9, 20] of 0.759 µM·h and a Cmax [9, 20] of 277 nM.

In the case of `CO[C@@H]1[C@@H](OC(N)=O)[C@@H](O)[C@H](Oc2ccc3c(O)c(NC(=O)c4ccc(O)c(CC=C(C)C)c4)c(=O)oc3c2C)OC1(C)C` [novobiocin, 4-hydroxy-3-[4-hydroxy-3-(3-mehtylbut-2-enyl)benzamido]-8-methylcoumarin-7-yl 3-O-carbamoyl-5,5-di-C-methyl-alpha-L-lyxofuranoside], the “maximum tolerated dose (MTD)” value [10] is given as 4 g/day, the “pharmacodynamic effects on neutrophil apoptosis” value ([11]; neutrophils from disease model animals (PIA rat), concentrations <60 uM) is given as “No pharmacodynamic effects” and the “effect of NOV on CPPD-induced prolonged survival” value ([11]; neutrophils from healthy controls (rat), control = base line, TNFalpha is 100% effect, concentrations <50 uM) is given as “No pharmacodynamic effects”. The “pharmacodynamic effects on CPPD-induced prolonged survival” value [11, 21] was “No pharmacodynamic effects”, the “pharmacodynamic effects on neutrophil apoptosis” value [11, 21] was “No pharmacodynamic effects” and the linearity of pharmacokinetics [12] was “linear”. For the same compound, the “dose excreted unaltered in the urine” value ([13]; Wright W. W. et al., 1956) was “About 3%”, the “oral dose excreted in the faeces” value ([13]; hepatic/biliary excretion) was “about 30%” and the oral availability [14] was “about 30%”. The “pharmacodynamic effects on the IL-1 induced mRNA upregulation of MMP3” value [15] was “No pharmacodynamic effects”, the “therapeutic effect on the pristane-induced arthritis” value ([6]; daily per oral administration of up to 80 mg/kg from day 11 to 21 (after onset of disease)) was “no therapeutic effect” and the “effect of NOV on CPPD-induced prolonged survival” value ([16]; neutrophils from healthy controls (human), control = base line, TNFalpha is 100% effect, concentrations <50 uM) was “No pharmacodynamic effects”. The “pharmacodynamic effects on CPPD-induced prolonged survival” value [16, 22] was “No pharmacodynamic effects”, the “pharmacodynamic effects on neutrophil apoptosis” value [16, 22] was “No pharmacodynamic effects” and the “pharmacodynamic effects on neutrophil apoptosis” value ([16]; neutrophils from patients with rheumatoid arthritis, concentrations <60 uM) was “No pharmacodynamic effects”. For the same compound, the “bound to plasma albumin” value [17] was 99.2%, the “pharmacodynamic effects on the IL-1 induced mRNA upregulation of MMP1” value ([18]; calf chondrocytes, IL-1 20 ng/mL) was “No pharmacodynamic effects” and the “additional pharmacodynamic effects on the inhibition of the IL-1 induced mRNA upregulation of MMP1 by MTX” value ([18]; novobiocin added to MTX) was “No additional pharmacodynamic effects”. For the same compound, the absorption ([8]; healthy volunteers) was “rapidly absorbed”, the “plasma levels versus levels at which any pharmacodynamic effects can be observed in non-clinical models of disease” value ([8]; healthy volunteers) was “remain well below” and the “time to maximum plasma concentrations, sub cutaneous route versus oral route” value ([8]; healthy volunteers) was “reached faster”. For the same compound, the AUC(0-inf) [9, 23] was 25.5 µg·h/mL, the Cmax [9, 23] was 9600 ng/mL and the Tmax [9, 23] was 0.9 h. It also gave an AUC(0-inf) [9, 24] of 110 µg·h/mL, an AUC(0-t) [9, 24] of 110 µg·h/mL and a Cmax [9, 24] of 23300 ng/mL. The Tmax [9, 24] was 1.8 h and the Cmax ([9]; oral administration (gavage; 55 mg/kg)) was 23300 ng/mL.
